Experimental data taken from patent publication US6737383B1, “Herbicidal oxadiazolidines” (priority 1999, dated 2004).

Columns and labels:
bedstraw = test: Test B pre/postemergence bedstraw; assay type: in vivo, Galium aparine; details: Preemergence
Outline: (§1)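 Test chemicals in a non-phytotoxic solvent mixture with surfactant were sprayed preemergence onto planted seeds and postemergence onto plants 2 to 18 cm tall (1- to 4-leaf stage). After twelve to sixteen days in a greenhouse, injury was visually rated against untreated controls from 0 (no effect) to 10 (complete control).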

corn = test: Test B pre/postemergence corn; assay type: in vivo, Zea mays
Outline: as §1

giant foxtail = test: Test B pre/postemergence giant foxtail; assay type: in vivo, Setaria faberii
Outline: as §1

cocklebur = test: Test B pre/postemergence cocklebur; assay type: in vivo, Xanthium strumarium
Outline: as §1

duck salad = test: Test B flood test duck salad; assay type: in vivo, Heteranthera limosa
Outline: (§2)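 Flood test on plants grown to the 2-leaf stage; treated plants kept in greenhouse twelve to sixteen days, then visually rated against controls on a 0 (no effect) to 10 (complete control) scale.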

bamyardgrass = test: Test B flood test barnyardgrass; assay type: in vivo, Echinochloa crus-galli
Outline: as §2

crabgrass = test: Test B pre/postemergence crabgrass; assay type: in vivo, Digitaria sanguinalis
Outline: as §1

rice = test: Test B flood test rice; assay type: in vivo, Oryza sativa
Outline: as §2

surinam grass = test: Test B pre/postemergence surinam grass; assay type: in vivo, Brachiaria decumbens
Outline: as §1

soybean = test: Test B pre/postemergence soybean; assay type: in vivo, Glycine max
Outline: as §1

rape = test: Test B pre/postemergence rape; assay type: in vivo, Brassica napus; details: Postemergence; for Rape plant response rating: scale of 0 to 10, 0 is no effect, 10 is complete control
Outline: as §1

[1] = Postemergence, Rate 62 g/ha, scale of 0 to 10, 0 is no effect, 10 is complete control
[2] = Postemergence, Rate 125 g/ha, scale of 0 to 10 where 0 is no effect and 10 is complete control
[3] = Postemergence, Rate 250 g/ha, scale of 0 to 10, 0 is no effect, 10 is complete control
[4] = Postemergence, Rate 500 g/ha, scale of 0 to 10 where 0 is no effect and 10 is complete control
[5] = Preemergence, Rate 62 g/ha, scale 0 to 10 (0 no effect, 10 complete control)
[6] = Preemergence, Rate 125 g/ha, scale of 0 to 10 where 0 is no effect and 10 is complete control
[7] = Preemergence, Rate 500 g/ha, scale of 0 to 10 where 0 is no effect and 10 is complete control
[8] = Rate 62 g/ha, flood test species, Pre-emergence, visual evaluation after twelve to sixteen days
[9] = Rate 125 g/ha, under heading Pre-emergence, flood test species, visual evaluation after twelve to sixteen days
[10] = Rate 250 g/ha, Pre-emergence (flood test species), scale 0 to 10, 0 is no effect, 10 is complete control
[11] = Rate 500 g/ha, Pre-emergence section of Table B, 0 to 10 scale (0 no effect, 10 complete control)

For `COC(C)n1c(=O)on(C(=O)N(c2ccc(F)cc2F)C(C)C)c1=O` (stereo not drawn) [Compound 593], the “Bedstraw plant response rating” value (bedstraw; Rate 62 g/ha, scale 0 to 10 (0 no effect, 10 complete control)) was 0, the “Bedstraw plant response rating (0 to 10 scale)” value (bedstraw; Rate 250 g/ha) was 0 and the “Corn plant response rating” value (corn; [1]) was 0. For the same compound, the “Plant response rating, Corn” value (corn; [2]) was 0, the “Corn plant response rating” value (corn; [3]) was 0 and the “Plant response rating, Corn” value (corn; [4]) was 0. The “Corn plant response rating” value (corn; [5]) was 0, the “Corn plant response rating” value (corn; [6]) was 0 and the “Corn plant response rating (0 to 10 scale)” value (corn; Preemergence, Rate 250 g/ha) was 0. The “Plant response rating, Corn” value (corn; [7]) was 0, the “Giant foxtail plant response rating” value (giant foxtail; [1]) was 0 and the “Plant response rating, Giant foxtail” value (giant foxtail; [2]) was 0. For the same compound, the “Giant foxtail plant response rating” value (giant foxtail; [3]) was 0, the “Plant response rating, Giant foxtail” value (giant foxtail; [4]) was 0 and the “Giant foxtail plant response rating” value (giant foxtail; [5]) was 0. For the same compound, the “Giant foxtail plant response rating” value (giant foxtail; [6]) was 0, the “Plant response rating, Giant foxtail” value (giant foxtail; [7]) was 0 and the “Cocklebur plant response rating” value (cocklebur; [1]) was 0. The “Plant response rating, Cocklebur” value (cocklebur; [2]) was 0, the “Cocklebur plant response rating” value (cocklebur; [3]) was 0 and the “Plant response rating, Cocklebur” value (cocklebur; [4]) was 0. For the same compound, the “Cocklebur plant response rating” value (cocklebur; [5]) was 0, the “Cocklebur plant response rating” value (cocklebur; [6]) was 0 and the “Cocklebur plant response rating (0 to 10 scale)” value (cocklebur; Preemergence, Rate 250 g/ha) was 0. For the same compound, the “Plant response rating, Cocklebur” value (cocklebur; [7]) was 0, the “Plant response rating, Ducksalad (0 to 10 scale, 0 is no effect, 10 is complete control)” value (duck salad; [8]) was 0 and the “Ducksalad plant response rating (0 to 10 scale, 0 is no effect, 10 is complete control)” value (duck salad; [9]) was 0. For the same compound, the “Ducksalad plant response rating” value (duck salad; [10]) was 0, the “Ducksalad plant response rating” value (duck salad; [11]) was 0 and the “Plant response rating, Barnyardgrass (0 to 10 scale, 0 is no effect, 10 is complete control)” value (bamyardgrass; [8]) was 0. For the same compound, the “Barnyardgrass plant response rating (0 to 10 scale, 0 is no effect, 10 is complete control)” value (bamyardgrass; [9]) was 0, the “Barnyardgrass plant response rating” value (bamyardgrass; [10]) was 0 and the “Barnyardgrass plant response rating” value (bamyardgrass; [11]) was 0. The “Crabgrass plant response rating” value (crabgrass; [1]) was 0, the “Plant response rating, Crabgrass” value (crabgrass; [2]) was 0 and the “Crabgrass plant response rating” value (crabgrass; [3]) was 0. For the same compound, the “Crabgrass plant response rating” value (crabgrass; [5]) was 0, the “Crabgrass plant response rating” value (crabgrass; [6]) was 0 and the “Plant response rating, Crabgrass” value (crabgrass; [7]) was 0. For the same compound, the “Plant response rating, Rice (0 to 10 scale, 0 is no effect, 10 is complete control)” value (rice; [8]) was 0, the “Rice plant response rating (0 to 10 scale, 0 is no effect, 10 is complete control)” value (rice; [9]) was 0 and the “Rice plant response rating” value (rice; [10]) was 0. For the same compound, the “Rice plant response rating” value (rice; [11]) was 0, the “B. signalgrass plant response rating” value (surinam grass; [1]) was 0 and the “Plant response rating, B. signalgrass” value (surinam grass; [2]) was 0. For the same compound, the “B. signalgrass plant response rating” value (surinam grass; [3]) was 0, the “Plant response rating, B. signalgrass” value (surinam grass; [4]) was 0 and the “B. signalgrass plant response rating” value (surinam grass; [5]) was 0. The “B. signalgrass plant response rating” value (surinam grass; [6]) was 0, the “B. signalgrass plant response rating (0 to 10 scale, 0 is no effect, 10 is complete control)” value (surinam grass; Preemergence, Rate 250 g/ha) was 0 and the “B. signalgrass plant response rating” value (surinam grass; [7]) was 0. The “Plant response rating, Soybean” value (soybean; [2]) was 0, the “Soybean plant response rating” value (soybean; [3]) was 0 and the “Plant response rating, Soybean” value (soybean; [4]) was 1. For the same compound, the “Soybean plant response rating” value (soybean; [5]) was 0, the “Soybean plant response rating” value (soybean; [6]) was 0 and the “Plant response rating, Soybean” value (soybean; [7]) was 0. For the same compound, the “Rape plant response rating” value (rape; Rate 62 g/ha) was 0, the “Plant response rating, Rape” value (rape; Rate 125 g/ha, scale of 0 to 10 where 0 is no effect and 10 is complete control) was 0 and the “Rape plant response rating” value (rape; Rate 250 g/ha) was 0.
